Tests used:
[1] = molecular target: T1, Human NPY2 receptor (Homo sapiens, UniProt P49146); test: Human NPY2 Receptor Binding Assay; details: [125I]PYY; read-out: hPPY2 IC50
T1 sequence (P49146 1-381): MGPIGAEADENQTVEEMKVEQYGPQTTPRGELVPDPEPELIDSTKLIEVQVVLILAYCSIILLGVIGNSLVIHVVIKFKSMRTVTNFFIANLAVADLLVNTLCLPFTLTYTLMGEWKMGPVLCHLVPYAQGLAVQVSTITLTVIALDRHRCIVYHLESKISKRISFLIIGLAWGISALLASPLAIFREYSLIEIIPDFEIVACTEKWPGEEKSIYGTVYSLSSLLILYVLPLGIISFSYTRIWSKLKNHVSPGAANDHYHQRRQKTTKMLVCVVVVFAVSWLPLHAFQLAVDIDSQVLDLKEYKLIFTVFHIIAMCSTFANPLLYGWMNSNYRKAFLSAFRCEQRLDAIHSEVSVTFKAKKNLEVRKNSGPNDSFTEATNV

[2] = molecular target: T2, Human NPY5 Receptor (Homo sapiens, UniProt Q15761); test: Human NPY5 Receptor Binding Assay; details: [125I]PYY; read-out: hNPY5 IC50
T2 sequence (Q15761 1-445): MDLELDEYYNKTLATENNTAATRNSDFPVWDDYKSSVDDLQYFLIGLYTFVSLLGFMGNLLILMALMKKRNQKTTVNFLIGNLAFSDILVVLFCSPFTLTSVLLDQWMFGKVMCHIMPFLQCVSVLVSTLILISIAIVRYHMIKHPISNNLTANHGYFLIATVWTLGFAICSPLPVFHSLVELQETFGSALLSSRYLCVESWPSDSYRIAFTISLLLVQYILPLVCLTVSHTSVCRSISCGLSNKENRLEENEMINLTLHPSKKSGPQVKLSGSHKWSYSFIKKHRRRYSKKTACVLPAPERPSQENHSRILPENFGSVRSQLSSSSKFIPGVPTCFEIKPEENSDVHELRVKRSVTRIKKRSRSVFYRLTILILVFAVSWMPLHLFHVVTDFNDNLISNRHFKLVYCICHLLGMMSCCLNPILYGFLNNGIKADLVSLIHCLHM

[3] = molecular target: T3, Rat NPY5 Receptor (Rattus norvegicus, UniProt Q63634); test: Rat NPY5 Receptor Binding Assay; details: 10 μM, values marked *; read-out: rNPY5 percent inhibition at 10 μM
T3 sequence (Q63634 1-445): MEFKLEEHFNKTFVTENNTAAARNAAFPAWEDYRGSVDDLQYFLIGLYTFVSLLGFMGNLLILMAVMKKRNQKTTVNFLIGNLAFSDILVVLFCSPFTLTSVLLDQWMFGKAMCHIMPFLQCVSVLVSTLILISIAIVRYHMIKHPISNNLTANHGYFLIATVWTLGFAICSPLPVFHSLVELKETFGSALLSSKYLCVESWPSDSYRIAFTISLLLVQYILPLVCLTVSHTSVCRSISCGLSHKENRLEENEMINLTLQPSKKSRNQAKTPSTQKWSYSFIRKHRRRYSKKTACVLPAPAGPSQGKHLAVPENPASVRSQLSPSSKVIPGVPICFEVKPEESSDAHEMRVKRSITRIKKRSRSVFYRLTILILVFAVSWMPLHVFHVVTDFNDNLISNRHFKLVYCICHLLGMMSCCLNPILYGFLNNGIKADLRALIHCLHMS

[4] = molecular target: Human NPY4/PP1 receptor (Homo sapiens, UniProt P50391); test: Human NPY4/PP1 Receptor Binding Assay; details: [125I]human PP; read-out: hNPY4 IC50
Chain of Human NPY4/PP1 receptor (P50391 whole entry): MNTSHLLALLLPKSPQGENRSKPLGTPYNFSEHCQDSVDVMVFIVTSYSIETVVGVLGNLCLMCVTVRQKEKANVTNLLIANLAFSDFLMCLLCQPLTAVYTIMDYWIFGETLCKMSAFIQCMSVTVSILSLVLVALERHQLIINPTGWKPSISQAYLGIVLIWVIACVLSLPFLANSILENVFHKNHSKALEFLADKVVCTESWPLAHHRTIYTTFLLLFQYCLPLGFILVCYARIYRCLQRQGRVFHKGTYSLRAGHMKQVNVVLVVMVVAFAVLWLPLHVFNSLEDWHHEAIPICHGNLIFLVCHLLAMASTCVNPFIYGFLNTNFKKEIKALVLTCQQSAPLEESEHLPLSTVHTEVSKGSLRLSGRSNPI

Row | Structure (SMILES) | IC50 [1] | IC50 [2] | inhibition at 10 µM [3] | IC50 [4]
1 | Cn1ccnc1SCC(=O)Nc1ccc(C(=O)c2ccccc2)cc1 [Compound 9] | > 5 µM | 0.44 µM | 93% | 
2 | O=C(CSc1nc2ccccc2[nH]1)Nc1ccc(C2CCCCC2)cc1 [Compound 11, 2-(1H-Benzoimidazol-2-ylsulfanyl)-N-(4-cyclohexyl-phenyl)-acetamide] | > 5 µM | 0.5 µM | 95% | 
3 | O=C(CSc1nc2ccccc2[nH]1)Nc1ccc(C(=O)c2ccccc2)cc1 [Compound 12, 2-(1H-Benzoimidazol-2-ylsulfanyl)-N-(4-benzoyl-phenyl)-acetamide] | > 5 µM | 0.48 µM | 95% | 
4 | Nc1nc(O)c2[nH]c(SCC(=O)Nc3ccc(C4CCCCC4)cc3)nc2n1 [Compound 13, 2-(2-Amino-hydroxy-9H-purin-8-ylsuIfanyl)-N-(4-yclohexyl-phenyl)-acetamide] | > 5 µM | 5.6 µM | 71% | 
5 | Nc1nc(O)c2[nH]c(SCC(=O)Nc3ccc(C(=O)c4ccccc4)cc3)nc2n1 [Compound 14, 2-(2-Amino-hydroxy-9H-purin-ylsulfanyl)-N-(4-benzoyl-phenyl)-acetamide] | > 5 µM | > 10 µM | 51% | 
6 | O=C(CSc1nc(-c2ccccc2)c(-c2ccccc2)[nH]1)Nc1ccc(C2CCCCC2)cc1 [Compound 15, N-(4-Cyclohexyl-phenyl)-2-(4,5-diphenyl-1H-imidazol-2-ylsulfanyl)-acetamide] | > 5 µM | 9.8 µM | 66% | 
7 | O=C(CSc1nc(-c2ccccc2)c(-c2ccccc2)[nH]1)Nc1ccc(C(=O)c2ccccc2)cc1 [Compound 16, N-(4-Benzoyl-phenyl)-2-(4,5-diphenyl-1H-imidazol-2-ylsulfanyl)-acetamide] | > 5 µM | 3.6 µM | 80% | 
8 | O=C(CSc1cccc[n+]1[O-])Nc1ccc(C(=O)c2ccccc2)cc1 [Compound 46, N-(4-Benzoyl-phenyl)-2-(1-oxy-pyridin-2-ylsulfanyl)-acetamide] | > 5 µM | 0.3 µM |  | 
9 | O=C(CSc1nc2ccccc2s1)Nc1ccc(C(=O)c2ccccc2)cc1 [Compound 47, 2-(Benzothiazol-2-ylsulfanyl)-N-(4-benzoyl-phenyl)-acetamide] | > 5 µM | 3.8 µM |  | 
10 | O=C(CSc1nc2ccccc2o1)Nc1ccc(C(=O)c2ccccc2)cc1 [Compound 48, 2-(Benzooxazol-2-ylsulfanyl)-N-(4-benzoyl-phenyl)-acetamide] | > 5 µM | 3 µM |  | 
11 | O=C(CSc1ncccn1)Nc1ccc(C(=O)c2ccccc2)cc1 [Compound 49, N-(4-Benzoyl-phenyl)-2-(pyrimidin-2-ylsulfanyl)-cetarnide] | > 5 µM | 1.6 µM |  | 
12 | O=C(CSc1ccncc1)Nc1ccc(C2CCCCC2)cc1 [Compound 50, N-(-clohexyl-phenyl)-2-(pyridin-4-ylsulfanyl)-acetamide] | > 5 µM | 0.053 µM |  | 
13 | O=C(CSc1nnnn1-c1ccccc1)Nc1ccc(C2CCCCC2)cc1 [Compound 52] | > 5 µM | 0.73 µM |  | 
14 | O=C(CSc1ccc(F)cc1)Nc1ccc(C2CCCCC2)cc1 [Compound 53] | > 5 µM | 0.21 µM |  | 
15 | CC(=O)Nc1ccc(SCC(=O)Nc2ccc(C3CCCCC3)cc2)cc1 [Compound 54] | > 5 µM | 2 µM |  | 
16 | O=C(CSc1ccc(O)cc1)Nc1ccc(C2CCCCC2)cc1 [Compound 55] | > 5 µM | 1.7 µM |  | 
17 | O=C(CSc1nc[nH]n1)Nc1ccc(C2CCCCC2)cc1 [Compound 56, N-(4-Cyclohexyl-phenyl)-2-(1H-[1,2,4]triazol-3-ylsultanyl)-acetamide] | > 5 µM | 0.73 µM |  | 
18 | Nc1nc(SCC(=O)Nc2ccc(C3CCCCC3)cc2)n[nH]1 [Compound 57, 2-(-Amino-2H-[1,2,4]triazol-3-ylsulfanyl)-N-(4-cyclohexyl-phenyl)-acetamide] | > 5 µM | > 1 µM |  | 
19 | Nc1nc(SCC(=O)Nc2ccc(C3CCCCC3)cc2)c2[nH]cnc2n1 [Compound 58, 2-(2-Amino-7H-purin-ylsulfanyl)-N-(4-cyclohexyl-phenyl)-acetamide] | > 5 µM | > 1 µM |  | 
20 | Nc1nc(SCC(=O)Nc2ccc(C3CCCCC3)cc2)nc2[nH]ncc12 [Compound 59] | > 5 µM | > 1 µM |  | 
21 | CCOc1ccc2nc(SCC(=O)Nc3ccc(C(=O)c4ccccc4)cc3)sc2c1 [Compound 60] | > 5 µM | 2.1 µM |  | 
22 | Nc1nnc(SCC(=O)Nc2ccc(C(=O)c3ccccc3)cc2)s1 [Compound 61] | > 5 µM | 0.51 µM |  | 
23 | O=C(CSc1nnnn1-c1ccccc1)Nc1ccc(C(=O)c2ccccc2)cc1 [Compound 62, N-(4-Benzoyl-phenyl)-2-(1-phenyl-1H-tetrazol-5-ylsulfanyl)-acetamide] | > 5 µM | 0.3 µM |  | 
24 | O=C(CSc1ccc(F)cc1)Nc1ccc(C(=O)c2ccccc2)cc1 [Compound 63, N-(4-Benzoyl-phenyl)-2-(4-fluoro-phenylsulfanyl)-acetamide] | > 5 µM | 0.65 µM |  | 

The remaining lines, values ahead:

Row | IC50 [1] | IC50 [2] | inhibition at 10 µM [3] | IC50 [4] | Structure (SMILES)
25 | > 5 µM | 2.7 µM |  |  | CC(=O)Nc1ccc(SCC(=O)Nc2ccc(C(=O)c3ccccc3)cc2)cc1 [Compound 64, 2-(-Acetylamino-phenylsulfanyl)-N-(4-benzoyl-phenyl)-acetamide]
26 | > 5 µM | 0.97 µM |  |  | O=C(CSc1ccc(O)cc1)Nc1ccc(C(=O)c2ccccc2)cc1 [Compound 65]
27 | > 5 µM | 1.7 µM |  |  | O=C(CSc1nc[nH]n1)Nc1ccc(C(=O)c2ccccc2)cc1 [Compound 66, N-(4-Benzoyl-phenyl)-2-(1H-[1,2,4]triazol-3-ylsulfanyl)-acetamide]
28 | > 5 µM | 7.6 µM |  |  | Nc1n[nH]c(SCC(=O)Nc2ccc(C(=O)c3ccccc3)cc2)n1 [Compound 67, 2-(5-Amino-2H-[1,2,4]triazol-3-ylsulfanyl)-N-(4-benzoyl-phenyl)-acetamide]
29 | > 5 µM | 5 µM |  |  | Nc1nc(SCC(=O)Nc2ccc(C(=O)c3ccccc3)cc2)c2[nH]cnc2n1 [Compound 68, 2-(2-Amino-7H-purin-ylsulfanyl)-N-(4 benzoyl-phenyl)-acetamide]
30 | > 5 µM | 6.8 µM |  |  | Nc1nc(SCC(=O)Nc2ccc(C(=O)c3ccccc3)cc2)nc2[nH]ncc12 [Compound 69, 2-(4-Amino-1H-pyrazolo[3,4-d]pyrimidin-6-ylsulfanyl)-N-(4-benzoyl-phenyl)-acetamide]
31 | > 5 µM | > 10 µM |  |  | Nc1nc(SCC(=O)Nc2ccc(C(=O)c3ccccc3)cc2)nc(O)c1N=O [Compound 70, 2-(4-Amino-hydroxy-nitroso-pyrimidin-2-ylsulfanyl)-N-(4-benzoyl-phenyl)-acetamide]
32 | > 5 µM | 1.3 µM |  |  | O=C(CSc1nc2cc(Cl)ccc2s1)Nc1ccc(C(=O)c2ccccc2)cc1 [Compound 71, N-(4-Benzoyl-phenyl)-2-(5-chloro-benzothiazol-2-ylsulfanyl)-acetamide]
33 | > 5 µM | 8.4 µM |  |  | Cc1cc(C)nc(SCC(=O)Nc2ccc(C(=O)c3ccccc3)cc2)n1 [Compound 72, N-(4-Benzoyl-yl)-2-(4,6-dimethyl-pyrimidin-2-ylsulfanyl)-acetamide]
34 | > 5 µM | 0.11 µM | 95% |  | O=C(CSc1ncc[nH]1)Nc1ccc(C2CCCCC2)cc1 [Compound 136, N-(4-Cyclohexyl-phenyl)-2-(1H-imidazol-2-ylsulfanyl)-acetamide]
35 | > 5 µM | > 10 µM |  | > 5 µM | Cc1cc(-c2nc(C)c(-c3nnc(SCC(=O)Nc4ccc(C(C)C)cc4)n3C)s2)no1 [Compound 177, N-(4-isopropyl-phenyl)-2-(4-methyl-5-[4-methyl-2-(5-methyl-isoxazol-3-yl)-thiazol-5-yl]-4H-[1,2,4]-triazol-3-ylsulfanyl]-acetamide, reference compound]
